# Numbered stars: 1 amine (or outer) side, 2 acyl side, 3 side chain; on linkers, the order of the positions; unused ones are H or OH. Bridge positions count the residues as written; N and C are the ends. Square brackets hold non-standard residues; d marks the D form. Side chains are listed from the residue outwards. Peptide text beside a SMILES is read from it. * marks the point of attachment. C20 diacid = O=C(O)CCCCCCCCCCCCCCCCCCC(=O)*; γGlu = O=C(O)[C@H](CCC(=O)[*:2])N[*:1]; Hyp = O=C(O)[C@@H]1C[C@@H](O)CN1; AEEA = NCCOCCOCC(=O)O
# Experiments:
# hAM1 receptor = hAM1 receptor (Homo sapiens, UniProt O60895+Q16602); assay: cAMP assay for in vitro receptor activation, hAM1-R; assay type: cell-based; details: cAMP assay, hAM1 receptor; read-out: hAM1R EC50
# Chain of hAM1 receptor (Q16602 23-461): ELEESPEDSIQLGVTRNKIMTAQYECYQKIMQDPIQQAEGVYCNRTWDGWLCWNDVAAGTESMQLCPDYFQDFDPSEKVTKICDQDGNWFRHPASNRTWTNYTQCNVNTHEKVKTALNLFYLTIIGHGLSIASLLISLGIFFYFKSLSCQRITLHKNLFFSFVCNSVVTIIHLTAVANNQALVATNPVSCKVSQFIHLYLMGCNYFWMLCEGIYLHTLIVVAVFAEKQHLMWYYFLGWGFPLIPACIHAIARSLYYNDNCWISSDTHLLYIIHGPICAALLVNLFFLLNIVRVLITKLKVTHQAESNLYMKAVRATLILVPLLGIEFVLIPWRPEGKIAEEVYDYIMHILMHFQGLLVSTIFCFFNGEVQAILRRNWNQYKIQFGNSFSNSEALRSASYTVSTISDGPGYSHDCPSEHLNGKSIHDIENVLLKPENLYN
# Chain of hAM1 receptor (O60895 43-175 partner): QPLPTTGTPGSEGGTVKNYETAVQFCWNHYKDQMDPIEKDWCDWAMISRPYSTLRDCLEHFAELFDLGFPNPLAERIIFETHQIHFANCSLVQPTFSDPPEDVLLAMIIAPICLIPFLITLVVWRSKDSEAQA
# How it was run: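 A subcloned monoclonal line stably expressing hAM1 receptor is thawed and plated at 8000 cells/well. The assay buffer is DPBS with 0.05% casein and 0.5 mM IBMX, and receptor activation is followed by cAMP levels.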
# hAMY3 receptor = target: T1, hAMY3 receptor (Homo sapiens, UniProt O60896+P30988); assay: cAMP assay for in vitro receptor activation, hAMY3-R; assay type: cell-based; details: cAMP assay, hAMY3 receptor; read-out: hAMY3R EC50
# T1 sequence (P30988 25-474): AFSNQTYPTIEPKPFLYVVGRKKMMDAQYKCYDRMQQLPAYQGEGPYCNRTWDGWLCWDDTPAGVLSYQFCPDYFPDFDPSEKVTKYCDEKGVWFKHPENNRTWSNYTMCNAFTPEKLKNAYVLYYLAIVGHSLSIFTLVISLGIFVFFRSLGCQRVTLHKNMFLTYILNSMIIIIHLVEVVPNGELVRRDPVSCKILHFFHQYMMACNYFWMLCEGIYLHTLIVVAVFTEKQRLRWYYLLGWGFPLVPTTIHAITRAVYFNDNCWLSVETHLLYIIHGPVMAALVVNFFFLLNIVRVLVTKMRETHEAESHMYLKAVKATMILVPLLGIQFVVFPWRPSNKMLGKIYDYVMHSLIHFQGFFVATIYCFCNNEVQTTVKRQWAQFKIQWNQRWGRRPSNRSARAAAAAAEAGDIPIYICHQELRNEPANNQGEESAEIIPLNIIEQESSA
# T1 sequence (O60896 24-148 partner): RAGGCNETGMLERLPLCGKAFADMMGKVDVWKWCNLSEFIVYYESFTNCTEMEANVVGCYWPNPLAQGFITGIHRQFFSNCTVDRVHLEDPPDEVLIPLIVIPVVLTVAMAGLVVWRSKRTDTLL
# How it was run: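 Stable hAMY3 cells; DPBS + 0.05% casein + 0.5 mM IBMX; graded compound doses, 30 min, RT; cAMP via HTRF Gs kit, TR-FRET read at 1 h.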
SMILES,EC50 (hAM1 receptor) [nM],EC50 (hAMY3 receptor) [nM]
CC[C@H](C)[C@H](NC(=O)[C@H](CCC(N)=O)NC(=O)[C@H](Cc1c[nH]cn1)NC(=O)[C@H](C)NC(=O)[C@H](CC(C)C)NC(=O)[C@H](CCCNC(=N)N)NC(=O)[C@H](CCC(N)=O)NC(=O)[C@@H](NC(=O)[C@@H](NC(=O)[C@@H]1CSSC[C@H](NC(=O)[C@H](CCCCN)NC(=O)CC[C@H](NC(=O)CCCCCCCCCCCCCCCCCCC(=O)O)C(=O)O)C(=O)N[C@@H](CC(N)=O)C(=O)N[C@@H]([C@@H](C)O)C(=O)N[C@@H](CO)C(=O)N[C@@H]([C@@H](C)O)C(=O)N1)[C@@H](C)O)C(C)C)C(=O)N[C@@H](C)C(=O)N[C@@H](CCC(N)=O)C(=O)N[C@@H](Cc1ccccc1)C(=O)N[C@H](C(=O)N[C@@H](CC(=O)O)C(=O)N[C@@H](CCCCN)C(=O)N[C@@H](CC(=O)O)C(=O)N[C@@H](CCCCN)C(=O)N[C@@H](CC(=O)O)C(=O)N1CCC[C@H]1C(=O)N[C@H](C(=O)N[C@@H](C)C(=O)N1CCC[C@H]1C(=O)N1CCC[C@H]1C(=O)N[C@H](C(=O)N[C@@H](CC(N)=O)C(=O)N[C@H](C(=O)NCC(=O)N[C@@H](CO)C(=O)N[C@@H](CC(N)=O)C(=O)NCC(=O)N1C[C@H](O)C[C@H]1C(N)=O)C(C)C)[C@@H](C)O)C(C)C)[C@@H](C)O [compound 88] ({C20 diacid-γGlu}-KCNTSTCTVQRLAHQIAQFTDKDKDPVAPPTNVGSNG[Hyp]-NH2; disulfide 2-7),> 5000,0.015
CC[C@H](C)[C@H](NC(=O)[C@H](CCC(N)=O)NC(=O)[C@H](CCC(=O)O)NC(=O)[C@H](C)NC(=O)[C@H](CC(C)C)NC(=O)[C@H](CCCNC(=N)N)NC(=O)[C@H](CCC(N)=O)NC(=O)[C@@H](NC(=O)[C@@H](NC(=O)[C@@H]1CSSC[C@H](NC(=O)[C@@H](N)CCCCN)C(=O)N[C@@H](CC(N)=O)C(=O)N[C@@H]([C@@H](C)O)C(=O)N[C@@H](C)C(=O)N[C@@H]([C@@H](C)O)C(=O)N1)[C@@H](C)O)C(C)C)C(=O)N[C@@H](Cc1ccc(O)cc1)C(=O)N[C@@H](CCC(N)=O)C(=O)N[C@@H](Cc1ccccc1)C(=O)N[C@@H](CCCCNC(=O)COCCOCCNC(=O)COCCOCCNC(=O)CC[C@H](NC(=O)CCCCCCCCCCCCCCCCCCC(=O)O)C(=O)O)C(=O)N[C@@H](CC(=O)O)C(=O)N[C@@H](CCCCN)C(=O)N[C@@H](CC(=O)O)C(=O)N[C@@H](CCCCN)C(=O)N[C@@H](CC(=O)O)C(=O)N[C@@H](CC(N)=O)C(=O)N[C@H](C(=O)N[C@@H](C)C(=O)N1CCC[C@H]1C(=O)N1CCC[C@H]1C(=O)N[C@H](C(=O)N[C@@H](CC(N)=O)C(=O)N[C@H](C(=O)NCC(=O)N[C@@H](CO)C(=O)N[C@@H](CC(N)=O)C(=O)NCC(=O)N1C[C@H](O)C[C@H]1C(N)=O)C(C)C)[C@@H](C)O)C(C)C [compound 89] (H-KCNTATCTVQRLAEQIYQFK([AEEA-AEEA-γGlu-C20 diacid])DKDKDNVAPPTNVGSNG[Hyp]-NH2; disulfide 2-7; N-terminus assumed),> 5000,0.015
CC[C@H](C)[C@H](NC(=O)[C@H](CCC(N)=O)NC(=O)[C@H](Cc1c[nH]cn1)NC(=O)[C@H](C)NC(=O)[C@H](CC(C)C)NC(=O)[C@H](CCCNC(=N)N)NC(=O)[C@H](CCC(N)=O)NC(=O)[C@@H](NC(=O)[C@@H](NC(=O)[C@@H]1CSSC[C@H](NC(=O)[C@H](CCCCN)NC(=O)CC[C@H](NC(=O)CCCCCCCCCCCCCCCCCCC(=O)O)C(=O)O)C(=O)N[C@@H](CC(N)=O)C(=O)N[C@@H]([C@@H](C)O)C(=O)N[C@@H](C)C(=O)N[C@@H]([C@@H](C)O)C(=O)N1)[C@@H](C)O)C(C)C)C(=O)N[C@@H](C)C(=O)N[C@@H](CCC(N)=O)C(=O)N[C@@H](Cc1ccccc1)C(=O)N[C@@H](Cc1ccc(O)cc1)C(=O)N[C@@H](CC(=O)O)C(=O)N[C@@H](CCCCN)C(=O)N[C@@H](CC(=O)O)C(=O)N[C@@H](CCCCN)C(=O)N[C@@H](CC(=O)O)C(=O)N[C@@H](CC(N)=O)C(=O)N[C@H](C(=O)N[C@@H](C)C(=O)N1CCC[C@H]1C(=O)N1CCC[C@H]1C(=O)N[C@H](C(=O)N[C@@H](CC(N)=O)C(=O)N[C@H](C(=O)NCC(=O)N[C@@H](CO)C(=O)N[C@@H](CC(N)=O)C(=O)NCC(=O)N1C[C@H](O)C[C@H]1C(N)=O)C(C)C)[C@@H](C)O)C(C)C [compound 94] ({C20 diacid-γGlu}-KCNTATCTVQRLAHQIAQFYDKDKDNVAPPTNVGSNG[Hyp]-NH2; disulfide 2-7),> 5000,0.016
CC[C@H](C)[C@H](NC(=O)[C@H](CCC(N)=O)NC(=O)[C@H](Cc1c[nH]cn1)NC(=O)[C@H](C)NC(=O)[C@H](CC(C)C)NC(=O)[C@H](CCCNC(=N)N)NC(=O)[C@H](CCC(N)=O)NC(=O)[C@@H](NC(=O)[C@@H](NC(=O)[C@@H]1CSSC[C@H](NC(=O)[C@H](CCCCN)NC(=O)CC[C@H](NC(=O)CCCCCCCCCCCCCCCCCCC(=O)O)C(=O)O)C(=O)N[C@@H](CC(N)=O)C(=O)N[C@@H]([C@@H](C)O)C(=O)N[C@@H](C)C(=O)N[C@@H]([C@@H](C)O)C(=O)N1)[C@@H](C)O)C(C)C)C(=O)N[C@@H](C)C(=O)N[C@@H](CCC(N)=O)C(=O)N[C@@H](Cc1ccccc1)C(=O)N[C@H](C(=O)N[C@@H](CC(N)=O)C(=O)N[C@@H](CCCCN)C(=O)N[C@@H](CC(=O)O)C(=O)N[C@@H](CCCCN)C(=O)N[C@@H](CC(=O)O)C(=O)N[C@@H](CC(N)=O)C(=O)N[C@H](C(=O)N[C@@H](C)C(=O)N1CCC[C@H]1C(=O)N1CCC[C@H]1C(=O)N[C@H](C(=O)N[C@@H](CC(N)=O)C(=O)N[C@H](C(=O)NCC(=O)N[C@@H](CO)C(=O)N[C@@H](CC(N)=O)C(=O)NCC(=O)N1C[C@H](O)C[C@H]1C(N)=O)C(C)C)[C@@H](C)O)C(C)C)[C@@H](C)O [compound 95] ({C20 diacid-γGlu}-KCNTATCTVQRLAHQIAQFTNKDKDNVAPPTNVGSNG[Hyp]-NH2; disulfide 2-7),> 5000,0.016
CC[C@H](C)[C@H](NC(=O)[C@H](CCC(N)=O)NC(=O)[C@H](CCC(=O)O)NC(=O)[C@H](C)NC(=O)[C@H](CC(C)C)NC(=O)[C@H](CCCNC(=N)N)NC(=O)[C@H](CCC(N)=O)NC(=O)[C@@H](NC(=O)[C@@H](NC(=O)[C@@H]1CSSC[C@H](NC(=O)[C@H](CCCCN)NC(=O)CC[C@H](NC(=O)CCCCCCCCCCCCCCCCCCC(=O)O)C(=O)O)C(=O)N[C@@H](CC(N)=O)C(=O)N[C@@H]([C@@H](C)O)C(=O)N[C@@H](C)C(=O)N[C@@H]([C@@H](C)O)C(=O)N1)[C@@H](C)O)C(C)C)C(=O)N[C@@H](Cc1ccc(O)cc1)C(=O)N[C@@H](CCC(N)=O)C(=O)N[C@@H](Cc1ccccc1)C(=O)N[C@H](C(=O)N[C@@H](CC(=O)O)C(=O)N[C@@H](CCCCN)C(=O)N[C@@H](CC(=O)O)C(=O)N[C@@H](CCCCN)C(=O)N[C@@H](CC(=O)O)C(=O)N[C@@H](CC(N)=O)C(=O)N[C@H](C(=O)N[C@@H](C)C(=O)N1CCC[C@H]1C(=O)N1CCC[C@H]1C(=O)N[C@H](C(=O)N[C@@H](CC(N)=O)C(=O)N[C@H](C(=O)NCC(=O)N[C@@H](CO)C(=O)N[C@@H](CC(N)=O)C(=O)N[C@H](C(=O)N1C[C@H](O)C[C@H]1C(N)=O)[C@@H](C)O)C(C)C)[C@@H](C)O)C(C)C)[C@@H](C)O [compound 96] ({C20 diacid-γGlu}-KCNTATCTVQRLAEQIYQFTDKDKDNVAPPTNVGSNT[Hyp]-NH2; disulfide 2-7),> 5000,0.016
CC[C@H](C)[C@H](NC(=O)[C@H](CCC(N)=O)NC(=O)[C@H](CCC(=O)O)NC(=O)[C@H](C)NC(=O)[C@H](CC(C)C)NC(=O)[C@H](CCCNC(=N)N)NC(=O)[C@H](CCC(N)=O)NC(=O)[C@@H](NC(=O)[C@@H](NC(=O)[C@@H]1CSSC[C@H](NC(=O)[C@H](CCCCN)NC(=O)CC[C@H](NC(=O)CCCCCCCCCCCCCCCCCCC(=O)O)C(=O)O)C(=O)N[C@@H](C)C(=O)N[C@@H]([C@@H](C)O)C(=O)N[C@@H](C)C(=O)N[C@@H]([C@@H](C)O)C(=O)N1)[C@@H](C)O)C(C)C)C(=O)N[C@@H](Cc1ccc(O)cc1)C(=O)N[C@@H](CCC(N)=O)C(=O)N[C@@H](Cc1ccccc1)C(=O)N[C@H](C(=O)N[C@@H](CC(=O)O)C(=O)N[C@@H](CCCCN)C(=O)N[C@@H](CC(=O)O)C(=O)N[C@@H](CCCCN)C(=O)N[C@@H](CC(=O)O)C(=O)N[C@@H](CC(N)=O)C(=O)N[C@H](C(=O)N[C@@H](C)C(=O)N1CCC[C@H]1C(=O)N1CCC[C@H]1C(=O)N[C@H](C(=O)N[C@@H](CC(N)=O)C(=O)N[C@H](C(=O)NCC(=O)N[C@@H](CO)C(=O)N[C@@H](CC(N)=O)C(=O)NCC(=O)N1C[C@H](O)C[C@H]1C(N)=O)C(C)C)[C@@H](C)O)C(C)C)[C@@H](C)O [compound 97] ({C20 diacid-γGlu}-KCATATCTVQRLAEQIYQFTDKDKDNVAPPTNVGSNG[Hyp]-NH2; disulfide 2-7),> 5000,0.016
